# According to US20200131249A1, “NOVEL PROTEINS AND USE THEREOF” (EVOLVERITAS KFT., priority 2017, published 2020):
# pIC50, pKi: −log10 of the molar value. Where no end group is shown, it is not given here.
# How the values were obtained:
# extrinsic pathway = assay: Prothrombin time (PT) in human plasma
# Method: (§1) Blood coagulation measurements using blood plasma taken from healthy human individuals were also performed. From the blood obtained through venipuncture and treated with sodium citrate (3.8% wt/vol) the plasma was isolated by centrifugation (2,000 g, 15 minutes, Jouan CR412 centrifuge).
# (§2) The effect of the protein variants of the present invention on the blood coagulation process was tested in three standard assays, the thrombin time, testing any direct effects on thrombin; prothrombin time, testing any effects on the extrinsic pathway; and the activated partial thromboplastin time, testing any effects on the intrinsic pathway. Blood was collected from a healthy individual by vein puncture after informed consent. The blood was treated with sodium-citrate (3.8% w/v) and centrifuged. All three assays were performed on the automated instrument Sysmex CA-1500 (Sysmex) with Innovin reagent (Dale Behring, Marburg, Germany).
# (§3) The inhibitors were applied in a fivefold serial dilution with the highest final concentration being 36 μM. This value is 3-4 orders of magnitudes higher than the KI values of the three protein variants of the present invention on human MASP-2. Even at the highest concentration the protein variants of the present invention have only little effect in the APTT test and no effect in the PT and TT tests.
# thrombin = assay: Thrombin time (TT) in human plasma
# Method: as §1, §2, §3
# human MASP-1 = target: T1, human MASP-1 (Homo sapiens, UniProt P48740); assay: KI determination on human MASP-1 catalytic fragment; format: biochemical; design: key to KI on human MASP-1: N.E.: not effective; conditions: for KI on human MASP-1: catalytic fragment, Z-L-Lys-SBzl
# T1 construct: catalytic enzyme fragments containing the three C-terminal domains: CCP1-CCP2-SP
# T1 sequence (P48740 449-699 limits assumed): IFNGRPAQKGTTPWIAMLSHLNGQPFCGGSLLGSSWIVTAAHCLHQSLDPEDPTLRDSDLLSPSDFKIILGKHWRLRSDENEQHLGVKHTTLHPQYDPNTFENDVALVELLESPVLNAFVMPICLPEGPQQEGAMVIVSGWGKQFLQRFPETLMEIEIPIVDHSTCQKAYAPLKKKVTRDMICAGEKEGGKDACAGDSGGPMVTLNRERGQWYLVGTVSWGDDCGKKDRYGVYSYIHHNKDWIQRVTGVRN
# T1 sequence (P48740 298-448 partner limits assumed): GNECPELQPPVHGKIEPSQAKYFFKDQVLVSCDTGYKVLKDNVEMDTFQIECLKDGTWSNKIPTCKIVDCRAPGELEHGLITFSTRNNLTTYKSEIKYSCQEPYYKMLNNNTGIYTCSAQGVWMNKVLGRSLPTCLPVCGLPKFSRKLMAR
# Method: (§4) The inhibition equilibrium constant (KI) of all four inhibitor variants produced was measured on human MASP-2 and rat MASP-2. Additionally, KI values were measured also on human MASP-1 and human MASP-3 to assess the specificity of the inhibitors amongst the MASP enzymes. KI values of the inhibitors on bovine trypsin, a pancreatic model enzyme was also measured.
# (§5) For determining the KI of the inhibitors on MASP enzymes we used catalytic enzyme fragments containing the three C-terminal domains: CCP1-CCP2-SP. The synthetic substrate used in the measurements was Z-L-Lys-SBzl hydrochloride (Sigma, C3647), from which a 10 mM stock solution was prepared. The reactions were performed in a volume of 0.2 ml at room temperature in a buffer consisting of 20 mM HEPES; 145 mM NaCl; 5 mM CaCl2; 0.05% Triton-X100. The substrate cleaved by the enzyme entered into a reaction with the 5,5′-Dithiobis(2-nitrobenzoic acid) (DTNB, Ellman's reagent, Sigma—D8130) auxiliary substrate present in the solution in 2-fold excess to Z-L-Lys-SBzl. The release of the chromophore group created in this way was monitored via the change of absorbance at 410 nm using a BioTek Synergy H4 multimode microplate reader.
# (§6) A dilution sequence was prepared from the individual inhibitors, the enzyme was added to it, and it was incubated for 2 hours at room temperature. The samples were transferred on a 96-well microtiter plate (Nunc 269620). The reactions were started by adding the mixture of the substrate and the auxiliary substrate to the samples. The concentration of the substrate and the length of the measuring period were chosen so that under the given conditions the enzyme should consume less than 10% of the substrate. In this case we used 250 μM Z-L-Lys-SBzl and 500 μM DTNB in the reactions. In the course of measuring, a method developed for the characterisation of tight-binding inhibitors was used (Empie, 1982). The concentration of the product was measured as a function of reaction time. The slope of the straight line determined for the initial phase of the reaction was normalised with the slope obtained for the uninhibited enzyme reaction, and this value was multiplied with the total enzyme concentration. As a result of this we obtained the free enzyme concentration, which was plotted as a function of the total inhibitor concentration and the Ki value was determined according to the following equation:
# (§7) E=y=E0−(E0+x+Ki−(((E0+x+Ki)^2)−4*E0*x)^(½))/2,
# (§8) where E is the free (uninhibited) enzyme concentration, and E0 is the total enzyme concentration. The stock concentration of the inhibitors was determined by titration with bovine trypsin of known concentration. The results were calculated as the average of parallel measurements.
# intrinsic pathway = assay: Activated partial thromboplastin time (APTT) in human plasma
# Method: as §1, §2, §3
# human MASP-3 = target: T2, human MASP-3 (Homo sapiens, UniProt P48740); assay: KI determination on human MASP-3 catalytic fragment; format: biochemical; conditions: for pKi: catalytic fragment, Z-L-Lys-SBzl
# T2 construct: catalytic enzyme fragments containing the three C-terminal domains: CCP1-CCP2-SP
# T2 sequence (P48740 450-728 isoform P48740-2 limits assumed): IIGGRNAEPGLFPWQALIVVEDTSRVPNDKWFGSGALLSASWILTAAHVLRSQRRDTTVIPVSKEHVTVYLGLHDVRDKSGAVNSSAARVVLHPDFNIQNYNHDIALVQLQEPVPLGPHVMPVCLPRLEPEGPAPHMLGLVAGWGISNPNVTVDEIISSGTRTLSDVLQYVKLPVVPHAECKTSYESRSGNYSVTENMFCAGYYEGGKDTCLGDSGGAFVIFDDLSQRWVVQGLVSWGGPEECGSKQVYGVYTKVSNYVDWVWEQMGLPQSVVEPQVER
# Method: as §4, §5, §6, §7, §8
# rat MASP-2 = target: T3, rat MASP-2 (Rattus norvegicus, UniProt Q9JJS8); assay: KI determination on rat MASP-2 catalytic fragment; format: biochemical; conditions: KI ratio
# T3 construct: made in house
# T3 sequence (Q9JJS8 with tags, fused parts or gaps L506P/I507H/R622A): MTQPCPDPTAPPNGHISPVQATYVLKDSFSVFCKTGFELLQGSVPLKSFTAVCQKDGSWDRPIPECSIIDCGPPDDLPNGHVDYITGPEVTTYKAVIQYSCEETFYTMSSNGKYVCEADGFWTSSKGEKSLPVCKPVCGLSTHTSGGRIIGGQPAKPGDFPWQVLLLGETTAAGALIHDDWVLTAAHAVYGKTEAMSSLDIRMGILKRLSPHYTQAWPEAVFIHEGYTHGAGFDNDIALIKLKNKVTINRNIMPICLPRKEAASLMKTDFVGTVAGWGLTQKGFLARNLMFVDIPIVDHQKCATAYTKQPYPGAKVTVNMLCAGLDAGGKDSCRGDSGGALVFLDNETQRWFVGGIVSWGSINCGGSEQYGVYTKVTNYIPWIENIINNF
# Method: as §4
# For determining the KI of the inhibitors on MASP enzymes we used catalytic enzyme fragments containing the three C-terminal domains: CCP1-CCP2-SP. The synthetic substrate used in the measurements was Z-L-Lys-SBzl hydrochloride (Sigma, C3647), from which a 10 mM stock solution was prepared. […] The release of the chromophore group created in this way was monitored via the change of absorbance at 410 nm using a BioTek Synergy H4 multimode microplate reader.
# A dilution sequence was prepared from the individual inhibitors, the enzyme was added to it, and it was incubated for 2 hours at room temperature. […] The concentration of the product was measured as a function of reaction time. The slope of the straight line determined for the initial phase of the reaction was normalised with the slope obtained for the uninhibited enzyme reaction, and this value was multiplied with the total enzyme concentration. […]
# porcine trypsin = porcine trypsin (Sus scrofa, UniProt P00761); conditions: Petersen 1996; read-out: KI towards porcine trypsin; cited from earlier work
# Chain of porcine trypsin (P00761 9-231): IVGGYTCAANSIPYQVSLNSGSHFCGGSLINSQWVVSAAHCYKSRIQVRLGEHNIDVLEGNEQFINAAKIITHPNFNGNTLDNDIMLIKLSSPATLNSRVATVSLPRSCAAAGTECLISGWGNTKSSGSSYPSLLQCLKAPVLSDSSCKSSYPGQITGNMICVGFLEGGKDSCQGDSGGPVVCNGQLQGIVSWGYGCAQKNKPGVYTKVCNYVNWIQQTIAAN
# MASP-2 = MASP-2 (Homo sapiens, UniProt O00187); design: host or cells: diluted serum; conditions: Wouters 2011; Keizer 2015; read-out: IC50 of MASP-2 inhibition in solid phase ELISA assay with diluted serum; cited from earlier work
# Chain of MASP-2 (O00187 16-686, species assumed): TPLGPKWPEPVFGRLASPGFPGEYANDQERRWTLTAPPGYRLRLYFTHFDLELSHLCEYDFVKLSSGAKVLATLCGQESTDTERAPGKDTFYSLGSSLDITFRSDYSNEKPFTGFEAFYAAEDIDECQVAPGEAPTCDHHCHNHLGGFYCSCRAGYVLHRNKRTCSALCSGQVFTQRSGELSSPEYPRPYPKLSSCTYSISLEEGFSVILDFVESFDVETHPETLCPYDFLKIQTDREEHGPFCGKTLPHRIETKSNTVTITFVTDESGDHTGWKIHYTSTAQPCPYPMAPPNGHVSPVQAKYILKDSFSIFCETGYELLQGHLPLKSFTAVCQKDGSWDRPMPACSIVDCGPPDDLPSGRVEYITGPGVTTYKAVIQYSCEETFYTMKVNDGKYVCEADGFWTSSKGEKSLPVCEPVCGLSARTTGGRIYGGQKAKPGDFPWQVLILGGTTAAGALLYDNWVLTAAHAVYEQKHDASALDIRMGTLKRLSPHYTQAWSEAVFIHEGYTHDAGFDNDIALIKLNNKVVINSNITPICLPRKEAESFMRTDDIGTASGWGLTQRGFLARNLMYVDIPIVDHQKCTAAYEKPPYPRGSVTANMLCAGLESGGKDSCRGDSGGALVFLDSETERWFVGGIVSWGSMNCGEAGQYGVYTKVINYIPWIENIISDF
KI on human MASP-1 (human MASP-1),pKi (human MASP-3),Substance,PT (extrinsic pathway; inhibitor 0.1 μM),PT (extrinsic pathway; inhibitor 0.3 μM),PT (extrinsic pathway; inhibitor 1.4 μM),PT (extrinsic pathway; inhibitor 7.2 μM),PT (extrinsic pathway; inhibitor 36.0 μM),TT (thrombin; inhibitor 0.1 μM),TT (thrombin; inhibitor 0.3 μM),TT (thrombin; inhibitor 1.4 μM),TT (thrombin; inhibitor 7.2 μM),TT (thrombin; inhibitor 36.0 μM),APTT (intrinsic pathway; inhibitor 0.1 μM),APTT (intrinsic pathway; inhibitor 0.3 μM),APTT (intrinsic pathway; inhibitor 1.4 μM),APTT (intrinsic pathway; inhibitor 7.2 μM),APTT (intrinsic pathway; inhibitor 36.0 μM),other results
N.E.,< 4.52,SEQ ID NO: 11: TFPI-D2 variant protein with inhibitor loop FCRAVKR (SEQ ID NO: 1) (KPDFCFLEEDPGFCRAVKRRYFYNNQTKQCERFKYGGCLGNMNNFETLEECKNICEDG; ends and bridges not checked; cysteine pairing not given here),10.7 s,10.8 s,11.0 s,11.0 s,11.4 s,16.5 s,16.6 s,16.7 s,16.4 s,16.0 s,36.3 s,36.5 s,37.0 s,39.3 s,46.0 s,–
N.E.,< 4.52,SEQ ID NO: 17: TFPI-D2 variant protein with inhibitor loop VCRAVKR (SEQ ID NO: 7) (KPDFCFLEEDPGVCRAVKRRYFYNNQTKQCERFKYGGCLGNMNNFETLEECKNICEDG; ends and bridges not checked; cysteine pairing not given here),10.8 s,10.8 s,10.8 s,10.9 s,11.4 s,16.6 s,16.3 s,16.4 s,16.4 s,16.0 s,36.8 s,37.2 s,38.1 s,40.6 s,47.4 s,fold more potent than SGMI-2 on rat MASP-2 (rat MASP-2): about 3 fold
N.E.,< 4.52,TFPI-D2 [reference compound],–,–,–,–,–,–,–,–,–,–,–,–,–,–,–,inhibition of MASP-1 (human MASP-1; result in words): No considerable inhibition; pKi (porcine trypsin): 10.00; pIC50 (MASP-2): 5.00; inhibition of MASP-3 (human MASP-3; result in words): No considerable inhibition
